For orientation: Cmax means the maximum level reached in the sampled fluid or tissue. One may read the EC50 as the concentration needed to bring the measured effect to its halfway point. For orientation: IC50 means the midpoint of a concentration-inhibition curve. A higher IC50 goes with weaker potency in that assay.

Data set [1] concerns CHO-7W cells expressing wildtype human APP. Description: sAPPβ and Aβ1-42 production in CHO-7W cells (AlphaLISA). Type of data set: cell-based, Chinese hamster. On the procedure: (§1) Culture Media was collected and frozen. Media was assayed using an AlphaLISA for Aβ1-42 (Perkin Elmer catalog # AL276C), sAPPα (R&D Systems catalog # AF1168 conjugated with Perkin Elmer acceptor beads catalog # 6772001 + 2B3 antibody from IBL catalog # 11088 biotinylated), and sAPPβ (Perkin Elmer AL276-acceptor + IBL catalog # 18957 biotinylated). For the assay, 2 μL of diluted or undiluted sample was added to a 384 well plate, followed by 2 μL of the respective antibody mixture. This was incubated for 1 h. Afterwards, 2 μL of donor beads was added to each well, followed by a 30-min incubation in the dark, after which the signal was read.

Data set [2] in a line: Pilot PK of FAH65 vs. verubecestat in rats. Type of data set: in vivo, rat. To be noted: oral gavage, 30 mg/kg.
Data set [3] concerns CHO cells that express APP with the Swedish (Swe) K595N/M596L mutation. Description: Aβ1-42 production in CHO-7W Swe cells. Type of data set: cell-based, Chinese hamster. The conditions noted are these: 1 μM, 24-h treatment, in words. As to the method:
as §1, with “The Chinese hamster ovary (CHO) cell line overexpressing human AβPP (7W) stably transfected with human APP or overexpressing APP with the Swedish (Swe) K595 N/M596L mutation were incubated with FAH compounds diluted to 1 μM overnight. Culture” for “Culture”

In a further data set the target is T1, BACE1 cleavage of NRG1 (Homo sapiens, UniProt P56817).
T1 construct: with or without full-length wild-type BACE1; expressed in transfected cells; host or cells: HEK293
Description: SEAP-NRG assay. The data set is classed as cell-based.

The subject of data set [4] is BACE1 cleavage of rat APP. The data set is described as follows: Pilot PD of FAH65 vs. verubecestat in rats (CSF and medial cortex biomarkers). The data set is classed as in vivo. The conditions noted are these: oral, 30 mg/kg.
Description: The hERG study was conducted at Eurofins (CEREP PanLabs).
Compound binding was calculated as a % inhibition of the binding of a radioactively labeled ligand specific for each target. While results showing an inhibition or stimulation higher than 50% are considered to
For these pilot experiments eAPP as described in Descamps et al (26) is crosslinked to a the CM5 Biacore chip. […] The raw data uncorrected for contribution of running buffer is fit to equilibrium binding data and corrected for the contribution of the running buffer to
pharmacokinetic (PK)/pharmacodynamic (PD) study to assess relative brain permeability and target engagement. Adult male and female Sprague-Dawley rats (≥ 200 g) were dosed at 30 mg/kg/day with
Animals were euthanized at 1, 2, 3, 6, 12 and 24 hours (n = 1/time point; 2 untreated controls) post-dose by pentobarbital over-anesthesia followed by collection of cerebrospinal fluid (CSF), trans-cardial blood collection for the isolation of plasma, perfusion with cold saline, and collection of brain tissue (medial cortex) for biochemical analyses (Fig. S3).
For data set [5], the target named is T2, potassium channel hERG (human) (Homo sapiens, UniProt Q12809).
T2 construct: Eurofins (CEREP PanLabs)
Description: hERG [3H] dofitilide binding assay. The text has this: The raw data uncorrected for contribution of
Animals were euthanized at
biochemical analyses (Fig. S3).
at Lotus Separations (Princeton, NJ).

T1 sequence (P56817 46-501): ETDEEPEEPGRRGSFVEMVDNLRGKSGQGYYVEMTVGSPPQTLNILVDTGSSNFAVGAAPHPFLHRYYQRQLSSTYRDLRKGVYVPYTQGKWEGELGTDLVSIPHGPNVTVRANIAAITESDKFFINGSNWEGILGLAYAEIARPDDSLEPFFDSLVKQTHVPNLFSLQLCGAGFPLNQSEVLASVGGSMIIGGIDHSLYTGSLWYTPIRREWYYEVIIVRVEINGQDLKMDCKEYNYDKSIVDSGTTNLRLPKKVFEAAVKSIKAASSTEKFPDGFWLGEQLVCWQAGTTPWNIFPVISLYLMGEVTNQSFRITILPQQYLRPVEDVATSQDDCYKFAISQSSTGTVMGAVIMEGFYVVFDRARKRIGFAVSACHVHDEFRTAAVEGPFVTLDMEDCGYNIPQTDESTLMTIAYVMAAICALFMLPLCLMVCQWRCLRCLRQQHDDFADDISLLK
T2 sequence (Q12809 whole entry): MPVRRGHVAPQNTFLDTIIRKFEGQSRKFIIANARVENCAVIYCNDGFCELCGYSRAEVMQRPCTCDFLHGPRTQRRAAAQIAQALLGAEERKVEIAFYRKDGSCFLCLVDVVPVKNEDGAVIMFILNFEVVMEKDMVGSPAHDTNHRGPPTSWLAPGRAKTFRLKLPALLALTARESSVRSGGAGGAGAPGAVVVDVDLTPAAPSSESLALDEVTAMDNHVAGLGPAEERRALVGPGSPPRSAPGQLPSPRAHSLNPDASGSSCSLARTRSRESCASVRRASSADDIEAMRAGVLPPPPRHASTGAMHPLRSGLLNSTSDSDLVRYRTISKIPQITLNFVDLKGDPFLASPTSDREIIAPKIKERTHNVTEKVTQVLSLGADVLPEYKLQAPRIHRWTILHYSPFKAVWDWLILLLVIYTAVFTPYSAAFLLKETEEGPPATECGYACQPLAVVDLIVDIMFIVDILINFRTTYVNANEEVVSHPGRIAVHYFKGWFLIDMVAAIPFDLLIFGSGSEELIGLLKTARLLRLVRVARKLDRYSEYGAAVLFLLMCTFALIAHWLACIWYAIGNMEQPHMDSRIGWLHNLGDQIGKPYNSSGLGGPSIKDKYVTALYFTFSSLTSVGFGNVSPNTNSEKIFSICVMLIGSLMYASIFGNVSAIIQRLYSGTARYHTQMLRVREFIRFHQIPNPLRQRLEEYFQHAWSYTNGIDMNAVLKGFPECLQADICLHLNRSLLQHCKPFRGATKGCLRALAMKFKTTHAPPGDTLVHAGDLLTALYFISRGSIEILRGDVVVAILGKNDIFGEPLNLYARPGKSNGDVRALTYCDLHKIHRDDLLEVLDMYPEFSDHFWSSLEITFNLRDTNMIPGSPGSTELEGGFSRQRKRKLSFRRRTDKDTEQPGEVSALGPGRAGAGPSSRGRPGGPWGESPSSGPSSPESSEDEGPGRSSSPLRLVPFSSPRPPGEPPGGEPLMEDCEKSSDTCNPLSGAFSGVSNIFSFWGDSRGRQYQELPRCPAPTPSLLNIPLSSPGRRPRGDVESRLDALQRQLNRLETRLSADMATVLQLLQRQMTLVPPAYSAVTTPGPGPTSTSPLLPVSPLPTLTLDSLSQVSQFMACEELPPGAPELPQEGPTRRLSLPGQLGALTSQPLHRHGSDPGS
Description for BACE1 cleavage of NRG1: A cDNA construct encoding a human placental secreted alkaline phosphatase (SEAP)-NRG1 (pAPtag5-NRG1-β1) fusion protein was transfected in human embryonic kidney (HEK293) cells in a 6-well format with or without full-length wild-type BACE1 using Lipofectamine 2000 (Invitrogen) as described previously [27]. After transfection, the medium was replaced with DMEM containing the test compound at 10, 5, 1, 0.1, and 0.01 ​μM as well as 10 ​% heat-inactivated fetal bovine serum (FBS), then incubated for 24 ​h. SEAP activity was measured in the conditioned medium.

With `Cc1cc(C2(c3cccc(-c4cncnc4)c3)N=C(N)N(C)C2=O)ccc1OC(F)F` (stereo not shown) [FAH65], in data set [1], the sAPPβ reduction is reported as above 90%. The sAPPβ production entry in data set [1] (1 μM, 24-h treatment, in words) is “decrease”. Moreover, the Aβ1-42 production entry in data set [1] (1 μM, in words) is “decrease”. For the same compound, the Cmax in data set [2] (both sexes, Sprague-Dawley, rat, brain) is 182 ng/g. Also, in data set [2], the “time of brain Cmax” value worked out at 2 h. Also, in data set [3], the Aβ1-42 result was “significantly decreases”. For the same compound, the EC50 on BACE1 cleavage of NRG1 (SEAP-NRG1, HEK293) is above 10 µM. Half-maximal inhibition at BACE1 cleavage of NRG1 (Table S1) (IC50) was put at 2 µM. In addition, the “substrate selectivity IC50 NRG1/IC50 APP” value on BACE1 cleavage of NRG1 (ratio) was above 200. Also, the “time post-delivery of lowest sAPPβ in brain (medial cortex)” value in data set [4] was 6 h. Moreover, in data set [4] (1- and 2-h FAH65 samples not available), the “time post-delivery of lowest sAPPβ in CSF” value was 3 h. Besides, in data set [4] (in words), the “Aβ1-40 in CSF compared with Veru-treated rats” value is listed as “lower”, the “sAPPα levels in brain medial cortex” value was “higher” and the “sAPPβ in CSF compared with Veru” value is “lower”. Besides, in data set [5], the EC50 was above 10 µM and the IC50 was above 10 µM.

The values above are taken from publication PMC12491701, “Discovery of an APP-selective BACE1 inhibitor for Alzheimer's disease” (Neurotherapeutics, 2025).
